Measured values from patent publication US20030022253A1, “Method for identifying, isolating and producing neuroactive binding agents and binding agents derived thereby” (Nyxis Neurotherapies, Inc., priority 2001, published 2003).
Where two headings read alike, the source gives them in different places.

Key:
[1] = target: T1, NMDA receptor-ion channel complex; assay: [3H]TCP binding assay on washed hippocampal membranes; parameters: species or system rat; conditions: antagonist alone, no glutamate or glycine added; read-out: IC50, inhibition of [3H]TCP binding
T1 construct: other: antagonist alone, no glutamate or glycine added; other: combined addition, 50 μM of each
Protocol: (§1) Tissue Preparation. Crude synaptic membranes were prepared from rat Hippocampi or from rat forebrains (male Sprague-Dawley rats) and washed extensively to remove endogenous amino acids, as previously described by Ransom and Stec ((1988) Brain Res. 444, 25-32). […] Membranes were then pelleted by centrifugation at 48,000 g for 20 min. This step was repeated twice and the homogenate was stored at −70′ in the same buffer. Before each use, homogenates were thawed at room temperature, pelleted, and washed four additional times. […] The final washed membranes were resuspended at concentrations of 2-3 mg/ml in either 5 mM Tris-HCl buffer or 5 mM Tris-acetate buffer.
(§2) TCP binding assay. Measurements of specific [^3H]TCP binding were performed as described previously (Haring R., Kloog Y., Harshak-Felixbrodt N., and Sokolovsky M. (1987) Biochem. Biophys. Res. Commun. 142, 501-510). Final reaction of mixtures consisted of 50-100 μg of membrane protein in 200 μl of 5 mM Tris-HCl buffer and contained either [^3H]TCP, or [^3H]TCP and the appropriate concentration of NMDA-receptor ligands or MAbs. Reactions were initiated by the addition of the membranes to the reaction mixtures. Unless otherwise indicated, binding assays were performed under nonequilibrium conditions at 25° C. for 1 hr. Nonspecific binding was determined in parallel samples containing 100 μM unlabeled PCP. Binding reactions were terminated by filtration on Whatman GF/B glass filters that had been pretreated with 0.1% polyethyleneimine for 1 hr. The dissociation of [^3H]TCP from its membrane-binding site was measured after equilibrating the receptors with 20 nM [^3H]TCP for 120 min. The dissociation reaction was initiated by the addition of 100 μM unlabeled PCP in the presence and absence of NMDA-receptor ligands or MAb. Reactions were terminated immediately (zero time) and after incubation for the additional periods of time indicated.

[2] = target: NMDA receptor-ion channel complex; assay: as above; parameters: species or system rat
Protocol: as §1, §2

[3] = target: T2, NMDA receptor-ion channel complex (Rattus norvegicus, UniProt P35439); assay: as above
T2 construct: other: in the presence of 25 μM of B6B21; other: agonist alone
T2 sequence (Q00959 23-1464, other chains not shown): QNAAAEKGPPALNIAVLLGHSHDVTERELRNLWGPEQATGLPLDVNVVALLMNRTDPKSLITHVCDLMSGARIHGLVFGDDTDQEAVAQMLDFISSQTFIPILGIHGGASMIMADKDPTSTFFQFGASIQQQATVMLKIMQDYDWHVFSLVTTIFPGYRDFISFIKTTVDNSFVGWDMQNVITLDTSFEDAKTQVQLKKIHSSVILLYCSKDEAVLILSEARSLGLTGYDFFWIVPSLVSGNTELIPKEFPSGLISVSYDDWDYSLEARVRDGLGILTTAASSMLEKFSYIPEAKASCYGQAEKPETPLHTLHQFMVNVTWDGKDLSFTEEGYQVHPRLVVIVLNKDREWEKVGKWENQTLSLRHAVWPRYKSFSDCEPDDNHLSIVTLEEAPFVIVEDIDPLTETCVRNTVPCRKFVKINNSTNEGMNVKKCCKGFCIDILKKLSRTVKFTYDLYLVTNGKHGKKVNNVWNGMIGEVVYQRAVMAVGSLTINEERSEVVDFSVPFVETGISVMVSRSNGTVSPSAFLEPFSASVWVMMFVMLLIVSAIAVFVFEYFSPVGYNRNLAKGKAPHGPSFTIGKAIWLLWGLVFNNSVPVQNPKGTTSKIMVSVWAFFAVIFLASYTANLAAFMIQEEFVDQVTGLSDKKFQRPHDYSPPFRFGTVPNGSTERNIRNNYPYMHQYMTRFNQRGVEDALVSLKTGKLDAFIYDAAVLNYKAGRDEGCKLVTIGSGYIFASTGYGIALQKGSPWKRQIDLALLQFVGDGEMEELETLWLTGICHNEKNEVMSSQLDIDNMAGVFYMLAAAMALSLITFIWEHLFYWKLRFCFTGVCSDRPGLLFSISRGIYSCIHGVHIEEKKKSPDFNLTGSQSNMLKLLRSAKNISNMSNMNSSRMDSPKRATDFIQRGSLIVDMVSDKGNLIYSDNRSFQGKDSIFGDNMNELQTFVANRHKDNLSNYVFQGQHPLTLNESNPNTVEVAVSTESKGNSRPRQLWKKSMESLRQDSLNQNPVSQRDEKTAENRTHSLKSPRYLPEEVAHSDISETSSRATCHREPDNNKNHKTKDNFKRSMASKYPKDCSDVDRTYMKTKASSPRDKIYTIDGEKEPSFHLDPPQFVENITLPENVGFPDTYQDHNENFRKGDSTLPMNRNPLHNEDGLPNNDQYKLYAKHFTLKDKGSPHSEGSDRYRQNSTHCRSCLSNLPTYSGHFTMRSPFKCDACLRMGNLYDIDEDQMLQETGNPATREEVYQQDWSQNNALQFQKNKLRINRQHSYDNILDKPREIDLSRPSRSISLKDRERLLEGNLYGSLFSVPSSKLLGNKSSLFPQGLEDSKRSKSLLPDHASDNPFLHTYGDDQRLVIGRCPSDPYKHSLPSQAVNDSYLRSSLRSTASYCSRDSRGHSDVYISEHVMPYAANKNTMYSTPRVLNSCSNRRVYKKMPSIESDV
T2 sequence (Q00960 27-1482, other chains not shown, further chain): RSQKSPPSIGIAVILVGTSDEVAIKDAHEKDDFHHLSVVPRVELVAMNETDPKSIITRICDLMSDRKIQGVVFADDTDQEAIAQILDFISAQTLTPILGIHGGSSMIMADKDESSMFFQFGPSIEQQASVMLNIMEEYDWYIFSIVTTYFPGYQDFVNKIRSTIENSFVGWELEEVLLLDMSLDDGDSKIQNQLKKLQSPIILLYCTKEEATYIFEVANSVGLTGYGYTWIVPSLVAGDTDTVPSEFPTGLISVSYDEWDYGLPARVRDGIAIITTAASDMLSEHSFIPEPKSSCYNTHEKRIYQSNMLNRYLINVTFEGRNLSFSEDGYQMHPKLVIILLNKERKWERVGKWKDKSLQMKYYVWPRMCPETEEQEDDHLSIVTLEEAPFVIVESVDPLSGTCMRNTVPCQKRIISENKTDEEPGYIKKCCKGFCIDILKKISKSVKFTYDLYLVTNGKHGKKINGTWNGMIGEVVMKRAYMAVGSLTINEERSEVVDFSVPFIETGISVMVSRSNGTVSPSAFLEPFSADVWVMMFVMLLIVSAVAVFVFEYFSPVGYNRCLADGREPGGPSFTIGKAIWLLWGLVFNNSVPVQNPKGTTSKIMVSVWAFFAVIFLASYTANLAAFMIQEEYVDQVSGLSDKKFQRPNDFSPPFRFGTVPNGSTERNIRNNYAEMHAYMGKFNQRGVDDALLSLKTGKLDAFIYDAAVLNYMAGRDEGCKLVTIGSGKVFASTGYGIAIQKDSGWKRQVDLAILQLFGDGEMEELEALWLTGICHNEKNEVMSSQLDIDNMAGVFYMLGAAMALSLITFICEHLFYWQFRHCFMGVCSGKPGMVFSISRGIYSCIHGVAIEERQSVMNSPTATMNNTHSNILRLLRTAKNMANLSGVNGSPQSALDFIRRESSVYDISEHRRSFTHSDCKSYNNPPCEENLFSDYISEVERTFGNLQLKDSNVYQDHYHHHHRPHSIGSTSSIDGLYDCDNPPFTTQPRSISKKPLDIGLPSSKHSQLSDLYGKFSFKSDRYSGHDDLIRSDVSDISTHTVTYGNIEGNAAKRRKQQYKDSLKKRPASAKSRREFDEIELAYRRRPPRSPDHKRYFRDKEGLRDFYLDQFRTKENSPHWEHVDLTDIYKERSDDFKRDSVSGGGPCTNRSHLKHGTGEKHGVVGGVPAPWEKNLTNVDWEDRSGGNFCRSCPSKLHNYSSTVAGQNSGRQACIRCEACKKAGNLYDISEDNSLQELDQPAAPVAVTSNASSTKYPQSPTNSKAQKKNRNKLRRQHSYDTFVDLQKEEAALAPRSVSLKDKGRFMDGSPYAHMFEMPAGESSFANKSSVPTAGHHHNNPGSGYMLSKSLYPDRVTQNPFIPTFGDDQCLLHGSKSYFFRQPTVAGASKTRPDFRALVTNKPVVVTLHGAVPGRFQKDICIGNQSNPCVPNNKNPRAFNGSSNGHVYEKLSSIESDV
Protocol: as §1, §2

[4] = target: T3, glycine-binding site of the NMDA-receptor complex (Rattus norvegicus, UniProt P35439); assay: [3H]glycine binding assay; conditions: Scatchard analysis, no antibody
T3 construct: Crude synaptic membranes were prepared from rat Hippocampi or from rat forebrains (male Sprague-Dawley rats); from tissue; host or cells: rat hippocampal or forebrain crude synaptic membranes (male Sprague-Dawley), Triton X-100 treated
Protocol: as §1

learning [5] = conditions: rats, IV doses up to 2 mg/kg; cited from earlier work
NMDA receptor complex = target: T4, NMDA receptor complex (Rattus norvegicus, UniProt P35439); assay: Modified glycine site-dependent [3H]MK-801 binding assay with 7-chlorokynurenic acid; conditions: at 10^−6 M
T4 construct: Crude synaptic membranes were prepared using rat hippocampal tissue (male Sprague-Dawley rats); from tissue; host or cells: rat hippocampal crude synaptic membranes (male Sprague-Dawley)

learning [6] = conditions: rats, IV doses up to 2 mg/kg; cited from earlier work; remark: listed apart in the source

O=C(O)c1cc(O)c2ccc(Cl)cc2n1 [7-Cl KYNA, 7-chlorokynurenic acid]
IC50 [1]: 6 µM | IC50 ([2]; in the presence of B6B21 (40 μg/ml), read-out: IC50, inhibition of [3H]TCP binding): 60 µM

N[C@H](CCCP(=O)(O)O)C(=O)O [D-AP5, D-(−)-2-amino-5-phosphonovaleric acid]
IC50 [1]: 1.4 µM | IC50 ([3]; read-out: IC50, inhibition of [3H]TCP binding, in the presence of 50 μM glutamate): > 100 µM

N[C@@H](CCC(=O)O)C(=O)O [glutamate]
concentration giving maximal stimulation of specific [3H]TCP binding [3]: > 10 µM | specific [3H]TCP binding ([3]; maximally stimulating concentration, non-equilibrium 1 h, 25° C., control 63): 132 fmol/mg of protein

NCC(=O)O [glycine]
ability to abolish the inhibitory effect of D-AP5 on [3H]TCP binding ([2]; 50 μM glycine or 40 μg/ml B6B21): Neither glycine nor B6B21 could abolish | specific [3H]TCP binding ([2]; added to maximally stimulating glutamate): 310 fmol/mg of protein | potentiation of the glutamate effect on [3H]TCP binding ([2]; co-addition at concentrations giving maximal effects): potentiated the glutamate effect additively | specific [3H]TCP binding ([2]; in the absence of added glutamate, glycine 50 μM, B6B21 25 μM): 155 fmol/mg of protein | Bmax of [3H]glycine binding [4]: 12.9 pmol/mg of protein

threonine-proline-proline-threonine [NT-13]
learning in the Morris Water Maze (learning [5]): statistically significant increase in learning | [3H]MK-801 binding, % of control (NMDA receptor complex): 130% | learning in the trace eyeblink paradigm (learning [6]): statistically significant increase in learning
